According to patent publication US11839661B2, “Rapid formation of supramolecular hydrogels by short peptide and bioactive small molecules” (BRANDEIS UNIVERSITY, priority 2017, dated 2023):
Square brackets hold non-standard residues; d marks the D form. Ends that are not written are not given here. Peptide text beside a SMILES is read from it. * marks the point of attachment. Acetyl(thymin-1-yl) = Cc1cn(CC(=O)*)c(=O)[nH]c1=O; Acetyl(2-naphthyl) = O=C(Cc1ccc2ccccc2c1)*

What was measured:
MES-SA/dx5 cells [1] = assay: MTT assay; format: cell-based; conditions: 48 hours
Protocol: Cell culture and MTT assay: Cell culture was carried out with MES-SA/dx5 cells purchased from Sigma-Aldrich Corporation. These cells were cultured in Macyo's 5A medium supplemented with 10% v/v fetal bovine serum, 100 U/mL penicillin and 100 μg/mL streptomycin. The condition for cell culture was 37° C. in a humidified atmosphere of 5% CO2. The MTT assay was carried out using MES-SA/dx5 cells seeded in a 96-well plate with a density of 1*10^4 cells per-well (total medium volume of 100 μL). 24 hours post seeding, after the removal of the medium, solutions with serial of concentrations (5 concentrations) of different nucleopeptides were added to each well. Cells without the treatment of the precursors were used as the control. At designated time (24/48/72 hours), 10 μL MTT solution (5 mg/mL) was added to each well and incubated at 37° C. for another 4 h, and then 100 μL of SDS-HCl solution was added to stop the reduction reaction and dissolve the purple formazan. The absorbance of each well at 595 nm was measured by a multimode microplate reader. The cytotoxicity assay was performed three times and the average value of the three measurements was taken. All the statistical analysis used mean±SEM. The range of SEM is from 0.04 to 2.21.

[2] = Sequestration of ATP by nucleopeptide (phase transition); format: binding
Protocol: (§1) Sample Preparation and Process for Sequestering ATP by Nucleopeptide: Typically, nucleopeptide […] was dissolved in 1 mL of PBS buffer. A minimal amount of sodium hydroxide was used to adjust the final pH to 7.4 to form 5.0 wt % solution of the nucleopeptide. ATP or ADP was dissolved in PBS buffer at the concentration of 100 mM with the final pH of 7.4. To test sequestration ability of nucleopeptide, we mixed the solution of 5.0 wt % of nucleopeptide with ATP (ADP) in different molar ratio and stirred the mixture with pipettor gently. The mixture was kept at room temperature and used for different characterizations. The sequestration of ATP (or ADP) results in phase transition, from the solution to precipitates or hydrogel, which is observable by naked eyes. Such phase transitions were further characterized by TEM, CD, SLS and rheology according to the same procedure for sample preparation.

MBP-ASC^PYD = MBP-ASC^PYD (Homo sapiens, UniProt Q9ULZ3); assay: TEM of MBP-ASC^PYD oligomerization on co-incubation with P5P; format: biochemical; conditions: P5P 100 μM co-incubated with MBP-ASC^PYD (1 mg/mL, ~18 μM)
MBP-ASC^PYD, sequence (Q9ULZ3 1-91 limits assumed): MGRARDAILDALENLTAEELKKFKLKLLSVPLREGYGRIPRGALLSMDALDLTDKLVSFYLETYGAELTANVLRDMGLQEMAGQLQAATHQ

[3] = test system: HS-5 (Human Bone Marrow Stromal) cell lines; assay: Biocompatibility with HS-5 cell lines; format: cell-based; conditions: HS-5 cells, over 3 days, concentration range 20-500 μM
Excerpt: The biocompatibility of peptide 1 with HS-5 (Human Bone Marrow Stromal) cell lines was investigated over 3 days. […] It is expected, therefore, that peptide 1 is also compatible with other types of physiologically normal cells.

[4] = Hydrogelation / gelation time by vial inverse method; format: physicochemical
Protocol: Hydrogel Preparation: Compound 1 (5.0 mg) was dissolved in 1 mL of aqueous buffer (sodium hydroxide was used to adjust the final pH to 7.4), and the hydrogels were formed after the addition of different equivalents of small molecules (initial concentration is 100 mM), the final concentration of 1 is 0.4 wt % in all hydrogels. The gelation time of 1 with different bioactive small molecules was determined by vial inverse method.

[5] = Rheology (storage and loss moduli); format: physicochemical
Protocol: Rheology Experiments: The rheological tests were performed on TA ARES-G2 rheometer, parallel-plate geometry with an upper plate diameter of 25 mm and a gap of 0.4 mm. During the measurement, the stage temperature was maintained at 25° C. by Peltier heating/cooling system. The hydrogel was loaded into stage by spatula. For the rheology testing in Examples 1-7, a time sweep was performed at the frequency of 6.28 rad/s and the strain for 1.0%, and a frequency sweep was performed at the range of 0.1 to 200 rad/s and strain is 1.0%. For the rheology testing in Examples 8-12, a strain sweep (0.1% to 100%) was performed at the frequency of 6.28 rad/s, and a frequency sweep was performed at the range of 0.1 to 200 rad/s and strain is 1.0%.

[6] = Doxorubicin release from hydrogel; format: physicochemical; conditions: hydrogel of 1 (0.4 wt %) formed with 1 equivalent pyridoxal, Dox 200 μg/mL, 37° C.
Protocol: To load the drug, a solution of Dox (1 mg/mL) was added during the gelling process. After the hydrogel formed by addition of pyridoxal or ATP (final concentration of 1 is 0.4 wt % and doxorubicin was 200 μg/mL). 0.25 mL of PBS (0.1 M phosphate-buffered saline (PBS, pH 7.4) or 0.1 M acetate buffer solution (pH 5.0)) was added onto the surface of the hydrogels, 0.2 mL of solution was taken out at the desired time point and 0.2 mL of PBS was added back. For the following time points, 0.2 mL of PBS was taken out and 0.2 mL of PBS was added back at each point. Using this process, the release of Dox was monitored by measuring the absorbance of Dox at wavelength of 480 nm, and its release profile calculated. The experiment was performed at 37° C. in triplicate. The results are shown in FIGS. 9A-B. As expected, the hydrogel releases the Dox according to the type of small bioactive molecules and pH.

[7] = Interaction of nucleopeptide with ADP (phase transition); format: binding; conditions: PBS buffer pH 7.4
Protocol: as §1

MES-SA/dx5 cells [8] = assay: CLSM of inhibition of Dox efflux pump; format: cell-based; conditions: MES-SA/dx5 cells without NP1 treatment, five hours after changing to medium without Dox
Protocol: Confocal Laser Scanning Microscopy (CLSM) Images of the Inhibition of Efflux Pump: To determine the potential drug efflux inhibitory effect by nucleopeptides, the drug efflux of free DOX was evaluated without or with incubation with nucleopeptide in efflux pumps overexpressing MES-SA/dx5 cells. After seeding 1.5×10^5 cells into 3.5 cm confocal dish and incubating at 37° C. for 24 h, the cells were incubated either with 10 μM free Dox or Dox with different concentration of nucleopeptide for 4 h. Then the medium was removed and the cells were washed three times with culture medium, and subsequently incubated with fresh complete medium for different time intervals (0, 2 or 5 h). At the end of incubation time, the cells were washed twice by live cell imaging buffer and stained nucleus by Hoechst 33342 for 10 minutes. After washed twice by live cell imaging, the cells were imaged immediately by Zeiss 880 microscope at the lens of 60×.

[9] = 1 at 0.4 wt %, 1 equivalent folinic acid
[10] = 1 at 0.4 wt %, 1 equivalent pyridoxal
[11] = 1 at 0.4 wt %, 4 equivalents folinic acid
[12] = 1 at 0.4 wt %, 4 equivalents pyridoxal

For `Cc1cn(CC(=O)N[C@H](Cc2ccccc2)C(=O)N[C@H](Cc2ccccc2)C(=O)N[C@H](CCCCN)C(=O)N[C@H](CCCCN)C(=O)N[C@H](Cc2ccccc2)C(=O)N[C@H](CCCCN)C(=O)N[C@H](CC(C)C)C(=O)N[C@H](CCCCN)C(=O)N[C@H](CC(C)C)C(=O)O)c(=O)[nH]c1=O` [NP1, thyminylacetyl-ffkkfklkl] ({Acetyl(thymin-1-yl)}-[dF][dF][dK][dK][dF][dK][dL][dK][dL]-OH), the cytotoxicity (MES-SA/dx5 cells [1]; NP1 by itself) was “little cytotoxicity”.

For “thyminylacetyl-KKFKLKL ({Acetyl(thymin-1-yl)}-KKFKLKL) [NP12]”, the “ability to sequester ATP” value [2] was “unable to sequester ATP”.

With thyminylacetyl-ffkkfkl [NP3] the “ability to sequester ATP” value [2] was “able to sequester ATP”.

With thyminylacetyl-FFKK [NP9] the “ability to sequester ATP” value [2] was “unable to sequester ATP”.

With thyminylacetyl-FF [NP11] the “ability to sequester ATP” value [2] was “unable to sequester ATP”.

In the case of thyminylacetyl-ffkkf [NP5], the “ability to sequester ATP” value [2] is reported as “able to sequester ATP”.

For thyminylacetyl-FFK [NP10], the “ability to sequester ATP” value [2] was “unable to sequester ATP”.

With `Cc1ncc(COP(=O)(O)O)c(C=O)c1O` [Peptide P5P, pyridoxal-5-phosphate] the “oligomerization of MBP-ASC^PYD” value (MBP-ASC^PYD) was “modulates the oligomerization”.

In the case of `CC(C)C[C@H](NC(=O)[C@H](CCCCN)NC(=O)[C@H](CC(C)C)NC(=O)[C@H](CCCCN)NC(=O)[C@H](Cc1ccccc1)NC(=O)[C@H](CCCCN)NC(=O)[C@H](CCCCN)NC(=O)[C@H](Cc1ccccc1)NC(=O)[C@H](Cc1ccccc1)NC(=O)Cc1ccc2ccccc2c1)C(=O)O` [Peptide 1] ({Acetyl(2-naphthyl)}-FFKKFKLKL-OH; C-terminus assumed), the biocompatibility [3] is reported as “cell-compatible”, the “tendency for hydrogelation (state in aqueous solution)” value ([4]; 1 alone, 0.4 wt %, pH 7.4) is reported as “transparent viscous solution” and the gelation time ([4]; 1 at 0.4 wt %, 1 equivalent AMP) is reported as 11 s. For the same compound, the gelation time [4, 9] was “about 8 seconds”, the “gelation time (sol-gel phase transition)” value [4, 10] was 190 s and the gelation time ([4]; 1 at 0.4 wt %, 1 or 4 equivalents ATP) was “about 7 seconds”. For the same compound, the gelation time ([4]; 1 at 0.4 wt %, 4 equivalents AMP) was 5 s, the gelation time [4, 11] was about 7 s and the gelation time [4, 12] was at most 19 s. It also gave a gelation time ([4]; 1 at 0.4 wt %, four molar equivalents of P5P) of 4 s, a gelation time ([4]; 1 at 0.4 wt %, pH 7.4, equal molar P5P) of at most 10 s and a gelation time ([4]; 1 at 0.4 wt %, two to four molar equivalents of P5P) of at most 10 s. For the same compound, the storage modulus [5, 9] was 64 Pa, the “cross point of G′ and G″” value [5, 10] was 77 s and the “storage modulus G′” value [5, 10] was 55 Pa. For the same compound, the storage modulus [5, 11] was 78 Pa, the “storage modulus G′” value [5, 12] was 980 Pa and the “storage modulus G′” value ([5]; 1 at 0.4 wt %, one equivalent of P5P) was 40 Pa. The mechanical properties ([5]; 1 in the presence of ATP or AMP) was “change little”, the “storage modulus G′” value ([5]; 1 itself, 0.4 wt %, after 1 h incubation) was “around 6 Pa” and the “G′ relative to hydrogel formed with 1 equivalent pyridoxal” value ([5]; 4 equivalents pyridoxal) was 18 times. The “G′ relative to G′ of 1 itself” value ([5]; one equivalent of P5P) was 8 times, the “release of doxorubicin from hydrogel” value ([6]; pH 5.0, 12 h) was “about 85%” and the “release of doxorubicin from hydrogel” value ([6]; pH 7.4, 12 h) was 50%.

With “thyminylacetyl-FFKKFKLK ({Acetyl(thymin-1-yl)}-FFKKFKLK) [NP7]” the “ability to sequester ATP” value [2] was “unable to sequester ATP”.

In the case of “thyminylacetyl-FFKKFKLKL ({Acetyl(thymin-1-yl)}-FFKKFKLKL) [NP2]”, the “ability to sequester ATP” value [2] is reported as “able to sequester ATP”, the “phase transition after addition of ATP” value ([2]; PBS buffer pH 7.4) is reported as “precipitates” and the “phase transition in the presence of ADP” value [7] is reported as “remains as a transparent solution”.

With “thyminylacetyl-FFKKFK ({Acetyl(thymin-1-yl)}-FFKKFK) [NP8]” the “ability to sequester ATP” value [2] was “unable to sequester ATP”.

For “thyminylacetyl-FFKKFKL ({Acetyl(thymin-1-yl)}-FFKKFKL) [NP4]”, the “ability to sequester ATP” value [2] was “able to sequester ATP”.

In the case of “thyminylacetyl-FFKKF ({Acetyl(thymin-1-yl)}-FFKKF) [NP6]”, the “ability to sequester ATP” value [2] is reported as “able to sequester ATP”.

In the case of `COc1cccc2c1C(=O)c1c(O)c3c(c(O)c1C2=O)C[C@@](O)(C(=O)CO)C[C@@H]3O[C@H]1C[C@H](N)[C@H](O)[C@H](C)O1` [Dox, doxorubicin, reference compound], the “cellular retention of Dox (efflux)” value (MES-SA/dx5 cells [8]) is reported as “little Dox” and the cell death (MES-SA/dx5 cells [1]; Dox alone (5 mm as printed)) is reported as 46%.
